Values of other authors, collected in patent US7578964B2, “Powder injection molding composition and method of use” (priority 2001, dated 2009).

Legend:
[1] = for Octanol - Water Partition Coefficient log POW: Handbook of Environmental Data on Organic Compounds, 4th Edition
[2] = solute solubility in water at 298.15 K; NIST Chemistry WebBook

| SMILES | Octanol - Water Partition Coefficient log POW [1] | Henry's Law Constant k^0H [2] | log POW value ([1]; stated in text as known to those skilled in the art) |
| --- | --- | --- | --- |
| CCC(C)=O [MEK] | 0.28 |  |  |
| ClC=C(Cl)Cl [Trichloroethylene] | 2.42 | 0.11 mol/Kg*bar |  |
| C1COCCO1 [Dioxane] | −0.42 |  |  |
| ClCCl [Methylene Chloride] |  | 0.41 mol/Kg*bar |  |
| ClC(Cl)(Cl)Cl [Carbon Tetrachloride] | 2.64 | 0.03 mol/Kg*bar |  |
| CC(C)=O [Acetone] | −0.24 | 30 mol/Kg*bar |  |
| CCOC(C)=O [Ethyl Acetate] | 0.66 | 8.9 mol/Kg*bar |  |
| O=C1CCCCCN1 [caprolactam, ε-caprolactam] |  |  | about 0.12 |
| c1ccccc1 [Benzene] |  | 0.18 mol/Kg*bar |  |
| Cc1ccccc1 [Toluene] |  | 0.15 mol/Kg*bar |  |
| CCO [Ethanol] |  | 200 mol/Kg*bar |  |
| CCOCC [Diethyl Ether] | 0.77 | 0.78-1.2 mol/Kg*bar |  |
| CCCCCC [Hexane] | 4 | 0.001 mol/Kg*bar |  |
| CO [Methanol] | −0.82 |  |  |
| CC(C)O [Isopropanol] |  | 130 mol/Kg*bar |  |
| C1CCOC1 [THF] | 0.45 |  |  |
